The values below are quoted from earlier work in US20130034537A1, “SIMULTANEOUS CO-TREATMENT OF PHYSICAL AND MENTAL SYMPTOMS RELATED TO SEVERE MENTAL DISORDERS BY A SPECIALLY FERMENTED SOY FORMULATION (FSWW08)” (priority 2010, published 2013).

One data set has as its system schizophrenic men. To be noted: oral 2 mg.
Another data set relates to immunity. To be noted: for Magnitude of immunity, ratio: DHEA = 1.
The test system of another data set is adrenals. To be noted: rats.
For data set [1] the following is noted: male steroid hormones.

As for `CCCCC(=O)O[C@H]1CC[C@H]2[C@@H]3CCc4cc(O)ccc4[C@H]3CC[C@]12C` [estradiol valeriate], in the data set on schizophrenic men, the “patients who failed to increase estradiol levels” value is reported as 27% and the testosterone entry is “reduce”.
On to `C[C@]12CCC(O)CC1=CC(O)[C@@H]1[C@@H]2CC[C@]2(C)C(O)CC[C@@H]12` (stereo partly drawn) [Androstenetriol], for which the “Magnitude of immunity, ratio” value in the data set on immunity is on record as 1000.
Take `C[C@]12CCC(O)C[C@@H]1CC[C@@H]1[C@@H]2CC[C@]2(C)[C@@H](O)CC[C@@H]12` (stereo partly drawn) [androstanediol]: the “potency in mediating immunity compared to DHEA” value with immunity is given as 100 times.
Turning to `O=c1c(-c2ccc(O)cc2)coc2cc(O)cc(O)c12` [genistein], in the data set with adrenals, the DHEA production entry is reported as “supporting”, the aldosterone production entry was “inhibiting” and the corticosterone production result is “inhibiting”.
Take `C[C@]12CCC(=O)C[C@@H]1CC[C@@H]1[C@@H]2CC[C@]2(C)[C@@H](O)CC[C@@H]12` [DHT, dihydrotestosterone]: the “activity relative to testosterone” value in data set [1] was 10 times.
Turning to `C[C@]12CC[C@H](O)CC1=CC[C@@H]1[C@@H]2CC[C@]2(C)C(=O)CC[C@@H]12` [DHEA, dehydroepiandrosterone], the “Magnitude of immunity, ratio” value in the data set on immunity is on record as 1.
